Data on 8 compounds can be found in PubChem BioAssay (NCI).

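1) Cells in 96-well plates. 2) Compound, 48 h, 5 concentrations. 3) Linear interpolation between surrounding doses. 4) Unreached endpoint = highest concentration. At the GI50, growth is halved. At the TGI there is no net growth.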

What all share (assay): NCI-60 cell line screen, 48 h
The subject of assay [1] is UACC-62 melanoma.
The test system of assay [2] is ACHN renal.
Assay [3] concerns HCT-116 colon.
For assay [4], the system named is SF-268 CNS.
In assay [5] the test system is NCI-H23 lung.
For assay [6], the system named is COLO 205 colon.
The subject of assay [7] is NCI/ADR-RES ovarian.
The test system of assay [8] is SK-MEL-5 melanoma.
Assay [9] deals with SK-MEL-2 melanoma.
Assay [10] concerns SF-539 CNS.

On to `C(=N\Nc1ccc2ccccc2n1)/c1ccccn1`, for which the GI50 in assay [1] was 0.877 µM; in [2] it was 0.367 µM; in [3], 0.368 µM; in [4] it was 0.41 µM; in assay [5], 0.857 µM; in [6], 0.41 µM. In addition, the GI50 in [7] was 0.345 µM; in assay [8], 0.694 µM; in [9] it was 0.511 µM; in assay [10] it was 0.362 µM. For the same compound, the TGI is 5.54 µM in [1]; over 43.9 µM in assay [2]; 13.9 µM in assay [3]; over 33.5 µM in assay [4]; over 100 µM in assay [5]; 8.96 µM in [6]. Moreover, the TGI is 10.6 µM in [7], 3.67 µM in [8], over 100 µM in [9] and 6.83 µM in assay [10].

As for `CC(=O)c1c(C)c2cnc(Nc3ccc(N4CCNCC4)cn3)nc2n(C2CCCC2)c1=O`, the GI50 is 11 µM in assay [1]; 1.03 µM in assay [2]; 3.07 µM in [3]; 10.7 µM in [4]; 11.1 µM in [5]; 1.33 µM in [6]. The GI50 in assay [7] was 16.7 µM; in assay [8], 2.58 µM; in assay [9], 11.5 µM; in assay [10], 14.1 µM. In addition, the TGI came to 23.9 µM in [1]; 14.7 µM in assay [2]; 16.3 µM in [3]; 25.3 µM in assay [4]; 27 µM in assay [5]; 17.6 µM in assay [6]. Also, the TGI in assay [7] was determined as 33.8 µM; in [8], 9.94 µM; in assay [9] it was 25.3 µM; in [10], 28.3 µM.

On to `O=C(CI)Nc1ccc(Br)cc1`, for which the GI50 was 3.96 µM in assay [1]; 2 µM in [2]; 1.88 µM in assay [3]; 1.8 µM in assay [4]; 1.87 µM in [5]; 1.85 µM in [6]. Also, the GI50 in [7] is 3.03 µM; in assay [8] it was 3.95 µM; in [9], 2.9 µM; in assay [10] it was 1.81 µM. Besides, the TGI in assay [1] came to 14.8 µM; in assay [2], 4.06 µM; in [3] it was 3.45 µM; in [4], 3.65 µM; in assay [5], 4.61 µM; in assay [6], 3.7 µM. For the same compound, the TGI was 9.76 µM in assay [7], 15.4 µM in assay [8], 8.03 µM in assay [9] and 3.67 µM in [10].

`COc1ccc2c(c1)/C(=N/OC(C)=O)c1c-2c(OC)nc2ccccc12`: the GI50 in [1] is over 100 µM; in assay [2], 86.4 µM; in assay [3] it was over 100 µM; in assay [4] it was over 100 µM; in assay [5] it was over 100 µM; in assay [6], over 100 µM. Also, the GI50 is over 100 µM in assay [7], over 100 µM in [8], over 100 µM in assay [9] and 72.9 µM in assay [10]. Also, the TGI in assay [1], in assay [2], in assay [3], in [4], in [5] and in assay [6] was over 100 µM each time. Moreover, the TGI in [7], in [8], in assay [9] and in assay [10] was over 100 µM throughout.

For `COc1ccc(C(O)c2ccccn2)cc1` (stereo not given), the TGI in assay [1], in assay [2], in [3], in [4], in assay [5] and in assay [6] was over 100 µM throughout. In addition, the TGI in [7], in assay [8], in [9] and in [10] was over 100 µM each time.

Consider `FC(F)(F)c1cccc(-c2[nH]ncc2-c2nnnn2-c2ccccc2)c1`, for which the GI50 is 4.22 µM in assay [1]; 11.2 µM in [2]; 4.7 µM in assay [3]; 7.69 µM in [4]; 5.86 µM in assay [5]; 3.49 µM in assay [6]. Further, the GI50 in assay [7] was 3.17 µM; in [8] it was 3.01 µM; in assay [9], 12.8 µM; in [10], 6.79 µM. Besides, the TGI in assay [1] came out at 15.8 µM; in assay [2], 24.5 µM; in [3] it was 19.4 µM; in assay [4] it was 23.3 µM; in assay [5] it was 23.3 µM; in assay [6] it was 13 µM. The TGI was found to be 25.2 µM in assay [7], 10.6 µM in [8], 31 µM in [9] and 21 µM in [10].

With `Oc1[nH]c2ccccc2c1C=Nc1ccc(-n2cncn2)cc1`, the GI50 in assay [1] is 14.6 µM; in [2] it was 18.3 µM; in [3], over 22.1 µM; in assay [4], over 24.1 µM; in assay [5] it was over 21.9 µM; in [6], over 25 µM. Besides, the GI50 in [7] is 15.7 µM; in assay [8] it was 8.74 µM; in assay [9] it was over 25 µM; in assay [10] it was over 25 µM. In addition, the TGI in assay [1], in assay [2], in [3], in assay [4], in assay [5] and in [6] was over 25 µM in each case. The TGI in assay [7], in assay [8], in assay [9] and in [10] was over 25 µM throughout.

As to `CCC(c1ccccc1)c1cc(C(C)(C)C)cc(C(C)(C)C)c1O` (stereo not given), the TGI was 32.2 µM in [1]; 32.6 µM in assay [2]; 25.5 µM in [3]; 28.9 µM in [4]; 30.9 µM in assay [5]; 34.2 µM in assay [6]. The TGI in assay [7] worked out at 28.7 µM; in assay [8] it was 32.7 µM; in assay [9], 29 µM; in assay [10] it was 34.2 µM.
